PMC8115619, “Generation of a chemical genetic model for JAK3” (Scientific Reports, 2021)

Tests used:
[1] = system: IL-4 induced STAT6 phosphorylation in wild type BMDMs; assay: Inhibitor washout, IL-4 induced STAT6 phosphorylation, wild type BMDMs; assay type: cell-based, mouse; conditions: for inhibition of IL-4 induced STAT6 phosphorylation after inhibitor washout, wild type BMDMs: washed 3 times in PBS, IL-4 30 min to 2 h after washout, 10 μM TL6-144, 100 μM PF-06651600
Procedure: Covalent inhibitors would be predicted to have very slow off rates and therefore inhibition should remain even if the unbound inhibitors are washed out of the cells. To test this, cells were treated with a high concentration of inhibitor for 2 h before being washed 3 times in PBS and then incubated in media without inhibitor for 0.5 to 24 h. If the inhibitor acts via a non-covalent mechanism, inhibition would not be expected to remain following washout from the cells. Ruxolitinib is a non-covalent pan-JAK inhibitor that can inhibit multiple JAK-STAT pathways in macrophages. […] To confirm this was not the case, similar experiments were done in JAK3 Cys905Ser knockin cells. […] Similar experiments were also carried out with PF-06651600. […] As the level of inhibition was lower at 2 h post washout than 30 min the experiment was repeated to look at 4 and 24 h time points for the washout step.
Figure 4 Effect of inhibitor washout on JAK3 inhibition. BMDMs were isolated from wild type and JAK3 Cys905Ser knockin mice. […] The macrophages were then either stimulated with 10 ng/ml IL-4 for 30 min or washed 3 times in PBS and then incubated in media without inhibitor for the indicated times. The cells were then stimulated with IL-4 for 30 min and STAT6 phosphorylation determined by immunoblotting using levels of ERK1/2 as a loading control.
Bone marrow derived macrophages (BMDMs) were cultured as described. Briefly, bone marrow was flushed in PBS from the femurs and tibias of mice. Cells were cultured on bacterial grade plastic for 7 days at 37 °C, 5% CO2. Cells were then detached using Versene (Gibco), re-plated on tissue culture plastic in BMDM media (in DMEM supplemented with 10% heat inactivated FBS (Labtech), 2 mM L-glutamine, 100 U/ml penicillin G, 100 μg/ml streptomycin and 0.25 μg/ml amphotericin, 5 ng/ml M-CSF) and used within 48 h. Where indicated cells were stimulated with 10 ng/ml IL-4, 10 ng/ml GM-CSF, 10 ng/ml IL-10 or 10 ng/ml IFNβ. All cytokines were from PeproTech.
Cells were lysed directly into SDS sample buffer and aliquots run on 10% polyacrylamide gels using standard methods. Proteins were transferred onto nitrocellulose membranes, and specific proteins were detected by immunoblotting. Antibodies against tyrosine phosphorylated STATs were from Cell Signaling Technology (phospho-STAT1 #9167, phospho-STAT3 #9131, phospho-STAT5 #4322 and phospho-STAT6 #9361). The total ERK1/2 antibody used as a loading control was also from cell Signaling Technology (#4695). HRP-conjugated secondary antibodies were obtained from Pierce. Bands were detected using Clarity ECL reagents from BioRad and imaged on a Licor Odyssey Fc system. Quantification was carried out using Licor Image Studio software. After correction for the ERK1/2 levels to account for loading differences, percentage inhibition was calculated relative to the IL-4 stimulated condition. IC50 values were calculated using the same methods as for the in vitro IC50 values.

AMPK = assay: Selectivity screen AMPK; assay type: biochemical; conditions: 1 µM inhibitor, mean
DAPK1 = DAPK1 (Homo sapiens, UniProt P53355); assay: Selectivity screen DAPK1; assay type: biochemical; conditions: 1 µM inhibitor, mean
DAPK1, sequence (P53355 whole entry): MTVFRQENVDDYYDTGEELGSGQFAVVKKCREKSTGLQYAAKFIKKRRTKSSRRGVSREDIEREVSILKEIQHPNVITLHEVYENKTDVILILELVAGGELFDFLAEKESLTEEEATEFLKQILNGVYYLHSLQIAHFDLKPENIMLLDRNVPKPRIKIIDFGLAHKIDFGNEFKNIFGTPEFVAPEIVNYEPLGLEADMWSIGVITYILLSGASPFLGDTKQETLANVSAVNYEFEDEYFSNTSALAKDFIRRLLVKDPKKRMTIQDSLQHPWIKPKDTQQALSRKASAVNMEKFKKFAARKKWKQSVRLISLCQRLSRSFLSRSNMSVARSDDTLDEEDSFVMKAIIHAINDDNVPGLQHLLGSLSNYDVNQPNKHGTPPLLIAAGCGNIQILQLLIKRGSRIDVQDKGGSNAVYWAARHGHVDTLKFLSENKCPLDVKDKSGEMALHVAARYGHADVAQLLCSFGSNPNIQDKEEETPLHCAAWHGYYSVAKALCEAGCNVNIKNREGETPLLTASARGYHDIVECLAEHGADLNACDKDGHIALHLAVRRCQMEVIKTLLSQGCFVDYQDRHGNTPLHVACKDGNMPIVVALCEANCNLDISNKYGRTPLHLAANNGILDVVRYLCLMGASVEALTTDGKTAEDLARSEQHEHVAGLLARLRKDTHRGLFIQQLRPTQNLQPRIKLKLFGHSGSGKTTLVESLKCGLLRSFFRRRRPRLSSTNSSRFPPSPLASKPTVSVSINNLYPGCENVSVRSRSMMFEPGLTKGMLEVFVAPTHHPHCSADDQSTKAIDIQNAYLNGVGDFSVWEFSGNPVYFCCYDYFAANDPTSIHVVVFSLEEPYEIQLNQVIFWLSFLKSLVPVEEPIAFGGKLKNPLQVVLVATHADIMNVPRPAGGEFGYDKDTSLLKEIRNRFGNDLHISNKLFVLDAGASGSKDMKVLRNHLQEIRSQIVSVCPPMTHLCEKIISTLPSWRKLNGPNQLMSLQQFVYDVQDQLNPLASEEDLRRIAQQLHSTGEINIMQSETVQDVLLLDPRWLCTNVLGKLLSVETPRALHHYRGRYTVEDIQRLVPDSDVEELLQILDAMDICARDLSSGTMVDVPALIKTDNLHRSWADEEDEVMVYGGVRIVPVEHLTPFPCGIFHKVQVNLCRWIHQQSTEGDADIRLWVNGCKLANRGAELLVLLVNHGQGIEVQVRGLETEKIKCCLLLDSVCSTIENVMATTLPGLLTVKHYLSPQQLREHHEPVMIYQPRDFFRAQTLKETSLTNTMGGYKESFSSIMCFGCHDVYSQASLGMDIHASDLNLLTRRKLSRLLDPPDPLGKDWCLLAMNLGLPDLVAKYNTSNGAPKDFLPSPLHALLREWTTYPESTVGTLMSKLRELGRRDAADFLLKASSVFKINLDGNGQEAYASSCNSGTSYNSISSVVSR
Procedure: (§1) For the in vitro kinase assay, JAK3 (5–20 mU diluted in 50 mM Tris pH 7.5, 0.1 mM EGTA, 0.05% β-mercaptoethanol, 1 mg/ml BSA) was assayed against PDKtide ([…]) in a final volume of 25.5 µl containing 50 mM Tris pH 7.5, 0.1 mM EGTA, 0.05% β-mercaptoethanol, 100 µM substrate peptide, 10 mM magnesium acetate and 0.02 mM [33P-γ-ATP] (50–1000 cpm/pmole) and incubated for 30 min at room temperature. Assays were started by the addition of the ATP and stopped by addition of 5 µl of 0.5 M (3%) orthophosphoric acid and then harvested onto P81 Unifilter plates with a wash buffer of 50 mM orthophosphoric acid. To determine the Km for ATP, assays were run using 1, 5, 10, 20, 50, 100, 200, 400, 500 μM ATP and Km derived by non-linear regression fitting to the Michaelis–Menten equation v = Vmax[S]/(Km + [S]). IC50 values for inhibitors via non-linear regression using a parameter model: Y = Bottom + (Top–Bottom)/(1 + (IC50/X)^HillSlope). Non-linear regression was carried out in Prism (version 8). In vitro selectivity screen was carried out as described previously.

HIPK2 = HIPK2 (Homo sapiens, UniProt Q9H2X6); assay: Selectivity screen HIPK2; assay type: biochemical; conditions: 1 µM inhibitor, mean
Procedure: as §1

IKKe = IKKe (Homo sapiens, UniProt Q14164); assay: Selectivity screen IKKe; assay type: biochemical; conditions: 1 µM inhibitor, mean
IKKe, sequence (Q14164 whole entry): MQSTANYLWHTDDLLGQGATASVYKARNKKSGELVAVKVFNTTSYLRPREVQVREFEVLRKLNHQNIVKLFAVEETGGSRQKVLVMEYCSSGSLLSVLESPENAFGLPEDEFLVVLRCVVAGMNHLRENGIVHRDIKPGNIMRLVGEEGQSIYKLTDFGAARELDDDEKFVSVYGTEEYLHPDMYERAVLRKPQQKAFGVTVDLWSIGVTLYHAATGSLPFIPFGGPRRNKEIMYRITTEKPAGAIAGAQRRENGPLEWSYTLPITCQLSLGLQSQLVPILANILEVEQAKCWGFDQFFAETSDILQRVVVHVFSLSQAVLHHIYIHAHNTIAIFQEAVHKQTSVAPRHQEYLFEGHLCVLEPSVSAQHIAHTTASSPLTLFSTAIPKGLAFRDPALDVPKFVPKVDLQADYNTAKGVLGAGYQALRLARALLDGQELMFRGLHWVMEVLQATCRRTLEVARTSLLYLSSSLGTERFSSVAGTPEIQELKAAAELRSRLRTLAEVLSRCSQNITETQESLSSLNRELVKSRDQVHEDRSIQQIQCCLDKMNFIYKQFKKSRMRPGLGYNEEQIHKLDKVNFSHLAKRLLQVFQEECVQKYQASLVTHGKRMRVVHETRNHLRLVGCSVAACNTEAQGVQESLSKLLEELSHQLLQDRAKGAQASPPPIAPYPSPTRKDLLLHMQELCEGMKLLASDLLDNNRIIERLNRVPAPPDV
Procedure: as §1

IR = IR (Homo sapiens, UniProt P06213); assay: Selectivity screen IR; assay type: biochemical; conditions: 1 µM inhibitor, mean
Procedure: as §1

MKK6 = MKK6 (Homo sapiens, UniProt P52564); assay: Selectivity screen MKK6; assay type: biochemical; conditions: 1 µM inhibitor, mean
MKK6, sequence (P52564 whole entry): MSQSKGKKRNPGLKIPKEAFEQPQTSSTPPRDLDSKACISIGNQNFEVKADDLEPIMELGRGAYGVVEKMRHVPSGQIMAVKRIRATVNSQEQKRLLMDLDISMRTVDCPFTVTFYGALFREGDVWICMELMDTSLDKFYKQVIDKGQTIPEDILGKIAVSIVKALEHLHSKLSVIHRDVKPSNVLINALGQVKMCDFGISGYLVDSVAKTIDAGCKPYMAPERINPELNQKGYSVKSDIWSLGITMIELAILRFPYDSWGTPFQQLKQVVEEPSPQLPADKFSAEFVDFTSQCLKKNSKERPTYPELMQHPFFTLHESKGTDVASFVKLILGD
Procedure: as §1

MNK2 = MNK2 (Homo sapiens, UniProt Q9HBH9); assay: Selectivity screen MNK2; assay type: biochemical; conditions: 1 µM inhibitor, mean
MNK2, sequence (Q9HBH9 whole entry): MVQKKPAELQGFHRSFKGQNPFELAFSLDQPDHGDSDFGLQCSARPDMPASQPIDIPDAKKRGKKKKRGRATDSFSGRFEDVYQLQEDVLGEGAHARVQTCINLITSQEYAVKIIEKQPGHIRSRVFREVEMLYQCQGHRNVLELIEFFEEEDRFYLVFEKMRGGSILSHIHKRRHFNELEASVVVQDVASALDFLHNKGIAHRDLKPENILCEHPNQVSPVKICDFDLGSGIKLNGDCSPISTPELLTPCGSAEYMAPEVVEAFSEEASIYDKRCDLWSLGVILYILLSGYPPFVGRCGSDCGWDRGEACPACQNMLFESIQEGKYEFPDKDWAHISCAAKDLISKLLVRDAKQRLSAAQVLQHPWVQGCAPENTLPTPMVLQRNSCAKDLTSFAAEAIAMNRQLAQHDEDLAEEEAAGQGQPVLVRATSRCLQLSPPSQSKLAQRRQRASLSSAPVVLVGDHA
Procedure: as §1

NEK6 = NEK6 (Homo sapiens, UniProt Q9HC98); assay: Selectivity screen NEK6; assay type: biochemical; conditions: 1 µM inhibitor, mean
NEK6, sequence (Q9HC98 whole entry): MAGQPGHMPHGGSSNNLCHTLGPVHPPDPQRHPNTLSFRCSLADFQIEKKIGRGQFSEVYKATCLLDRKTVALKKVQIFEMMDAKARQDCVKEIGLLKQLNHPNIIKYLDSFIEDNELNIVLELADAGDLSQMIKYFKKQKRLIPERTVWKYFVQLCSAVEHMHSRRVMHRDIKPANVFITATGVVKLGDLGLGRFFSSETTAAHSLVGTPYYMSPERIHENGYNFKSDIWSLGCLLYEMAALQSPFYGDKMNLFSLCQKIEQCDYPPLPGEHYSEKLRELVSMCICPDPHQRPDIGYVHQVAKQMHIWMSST
Procedure: as §1

PHK = assay: Selectivity screen PHK; assay type: biochemical; conditions: 1 µM inhibitor, mean
Procedure: as §1

PIM1 = PIM1 (Homo sapiens, UniProt P11309); assay: Selectivity screen PIM1; assay type: biochemical; conditions: 1 µM inhibitor, mean
PIM1, sequence (P11309 whole entry): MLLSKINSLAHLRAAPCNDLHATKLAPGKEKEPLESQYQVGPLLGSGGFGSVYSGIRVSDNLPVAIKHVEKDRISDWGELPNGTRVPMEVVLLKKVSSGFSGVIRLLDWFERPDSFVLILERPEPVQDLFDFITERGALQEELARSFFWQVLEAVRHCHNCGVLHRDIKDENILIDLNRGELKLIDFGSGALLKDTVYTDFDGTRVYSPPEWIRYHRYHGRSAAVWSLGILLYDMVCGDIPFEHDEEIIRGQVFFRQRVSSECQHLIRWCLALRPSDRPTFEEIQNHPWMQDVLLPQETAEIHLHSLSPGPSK
Procedure: as §1

PLK1 = PLK1 (Homo sapiens, UniProt P53350); assay: Selectivity screen PLK1; assay type: biochemical; conditions: 1 µM inhibitor, mean
Procedure: as §1

SmMLCK = SmMLCK (Homo sapiens, UniProt Q15746); assay: Selectivity screen SmMLCK; assay type: biochemical; conditions: 1 µM inhibitor, mean
Procedure: as §1

Src = Src (Homo sapiens, UniProt P12931); assay: Selectivity screen Src; assay type: biochemical; conditions: 1 µM inhibitor, mean
Procedure: as §1

SYK = SYK (Homo sapiens, UniProt P43405); assay: Selectivity screen SYK; assay type: biochemical; conditions: 1 µM inhibitor, mean
Procedure: as §1

TAK1 = TAK1 (Homo sapiens, UniProt O43318); assay: Selectivity screen TAK1; assay type: biochemical; conditions: 1 µM inhibitor, mean
TAK1, sequence (O43318 1-303 limits assumed): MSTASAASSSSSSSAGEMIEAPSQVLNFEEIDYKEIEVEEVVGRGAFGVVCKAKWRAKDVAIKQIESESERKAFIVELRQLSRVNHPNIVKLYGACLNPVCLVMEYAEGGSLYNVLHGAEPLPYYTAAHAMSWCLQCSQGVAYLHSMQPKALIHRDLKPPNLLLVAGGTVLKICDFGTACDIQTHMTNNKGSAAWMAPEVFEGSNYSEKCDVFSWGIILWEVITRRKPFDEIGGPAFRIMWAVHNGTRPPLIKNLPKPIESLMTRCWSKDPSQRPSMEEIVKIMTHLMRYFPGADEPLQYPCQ
Procedure: as §1

TAO1 = TAO1 (Homo sapiens, UniProt Q7L7X3); assay: Selectivity screen TAO1; assay type: biochemical; conditions: 1 µM inhibitor, mean
TAO1, sequence (Q7L7X3 whole entry): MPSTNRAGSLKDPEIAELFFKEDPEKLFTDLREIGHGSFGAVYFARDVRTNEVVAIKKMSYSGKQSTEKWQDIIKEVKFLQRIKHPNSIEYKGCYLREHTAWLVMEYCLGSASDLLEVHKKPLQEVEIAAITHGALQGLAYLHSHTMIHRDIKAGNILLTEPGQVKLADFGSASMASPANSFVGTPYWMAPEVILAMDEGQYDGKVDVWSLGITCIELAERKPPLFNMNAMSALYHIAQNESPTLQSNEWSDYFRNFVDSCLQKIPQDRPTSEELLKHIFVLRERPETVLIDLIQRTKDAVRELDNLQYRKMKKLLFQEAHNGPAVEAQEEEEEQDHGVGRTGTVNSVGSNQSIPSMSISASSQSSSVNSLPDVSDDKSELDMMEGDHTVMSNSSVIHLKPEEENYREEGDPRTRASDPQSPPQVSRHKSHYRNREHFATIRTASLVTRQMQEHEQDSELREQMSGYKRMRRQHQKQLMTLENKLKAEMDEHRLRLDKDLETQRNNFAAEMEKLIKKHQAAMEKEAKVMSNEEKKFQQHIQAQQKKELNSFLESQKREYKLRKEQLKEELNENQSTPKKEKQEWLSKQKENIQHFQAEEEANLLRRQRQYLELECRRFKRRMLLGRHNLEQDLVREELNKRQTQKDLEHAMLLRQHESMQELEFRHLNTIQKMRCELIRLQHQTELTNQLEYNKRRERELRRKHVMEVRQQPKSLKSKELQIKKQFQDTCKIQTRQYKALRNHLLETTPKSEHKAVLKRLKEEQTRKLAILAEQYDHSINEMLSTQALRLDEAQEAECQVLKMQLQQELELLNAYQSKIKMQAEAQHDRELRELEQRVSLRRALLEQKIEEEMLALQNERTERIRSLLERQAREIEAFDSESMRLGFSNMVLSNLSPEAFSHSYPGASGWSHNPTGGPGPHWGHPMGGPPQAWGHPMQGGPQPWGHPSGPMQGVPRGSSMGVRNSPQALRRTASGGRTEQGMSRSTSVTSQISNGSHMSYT
Procedure: as §1

TTBK1 = TTBK1 (Homo sapiens, UniProt Q5TCY1); assay: Selectivity screen TTBK1; assay type: biochemical; conditions: 1 µM inhibitor, mean
Procedure: as §1

TTBK2 = TTBK2 (Homo sapiens, UniProt Q6IQ55); assay: Selectivity screen TTBK2; assay type: biochemical; conditions: 1 µM inhibitor, mean
Procedure: as §1

WNK1 = WNK1 (Homo sapiens, UniProt Q9H4A3); assay: Selectivity screen WNK1; assay type: biochemical; conditions: 1 µM inhibitor, mean
Procedure: as §1

[2] = inhibitor 2 h, 0.5 μM Ruxolitinib

SMILES	inhibition of IL-4 induced STAT6 phosphorylation after inhibitor washout, wild type BMDMs [1, 2]	activity remaining in the presence of the inhibitor: AMPK (AMPK)	activity remaining in the presence of the inhibitor: DAPK1 (DAPK1)	activity remaining in the presence of the inhibitor: HIPK2 (HIPK2)	activity remaining in the presence of the inhibitor: IKKe (IKKe)	activity remaining in the presence of the inhibitor: IR (IR)	activity remaining in the presence of the inhibitor: MKK6 (MKK6)	activity remaining in the presence of the inhibitor: MNK2 (MNK2)	activity remaining in the presence of the inhibitor: NEK6 (NEK6)	activity remaining in the presence of the inhibitor: PHK (PHK)	activity remaining in the presence of the inhibitor: PIM1 (PIM1)	activity remaining in the presence of the inhibitor: PLK1 (PLK1)	activity remaining in the presence of the inhibitor: SmMLCK (SmMLCK)	activity remaining in the presence of the inhibitor: Src (Src)	activity remaining in the presence of the inhibitor: SYK (SYK)	activity remaining in the presence of the inhibitor: TAK1 (TAK1)	activity remaining in the presence of the inhibitor: TAO1 (TAO1)	activity remaining in the presence of the inhibitor: TTBK1 (TTBK1)	activity remaining in the presence of the inhibitor: TTBK2 (TTBK2)	activity remaining in the presence of the inhibitor: WNK1 (WNK1)	other results
C=CC(=O)N1C[C@H](Nc2ncnc3[nH]ccc23)CC[C@@H]1C [PF-06651600, 1-((2S,5R)-5-((7H-Pyrrolo[2,3-d]pyrimidin-4-yl)amino)-2-methylpiperidin-1-yl)prop-2-en-1-one, reference compound]	retained																				inhibition of IL-4 induced STAT6 phosphorylation 24 h after inhibitor washout, wild type BMDMs ([1]; 100 μM PF-06651600 for 2 h, washout, 24 h time point): Some inhibition was retained
C=CC(=O)Nc1cccc(CNc2nc(Nc3ccc(N4CCN(C)CC4)cc3OC)ncc2Cl)c1 [TL6-144]	much lower than in control cells	91	94	87	100	11	104	70	97	40	95	107	62	74	107	77	99	80	94	81	block of IL-4 induced STAT6 phosphorylation without washout, wild type BMDMs ([1]; inhibitor 2 h, no washout, 0.5 μM Ruxolitinib, 10 μM TL6-144): completely blocked
C=CC(=O)Nc1cccc(CNc2nc(Nc3ccc(N4CCOCC4)cc3)ncc2Cl)c1 [TL8-52]		80	100	97	34	15	105	66	103	78	111	114	98	53	63	39	91	100	106	112	
